Assay results reported in US11040952B2, “Phthalazinone compound, method for preparation thereof, pharmaceutical composition thereof, and use thereof” (SHANGHAI INSTITUTE OF MATERIA MEDICA, CHINESE ACADEMY OF …, priority 2017, dated 2021).

Columns and labels:
[1] = system: HBV; assay: HBV DNA content in the supernatant of cell culture (real-time PCR); format: cell-based, hepatitis B virus (HBV); conditions: Hepatitis B virus, HepG2.2.15, 192 h, inhibition of HBV DNA replication, HepG2.2.15 supernatant, 8 days
Protocol: (§1) Human hepatoblastoma cell line HepG2.2.15 stably transfected with full-length HBV (provided by Shanghai Institute of Materia Medica, Chinese Academy of Sciences)
(§2) HepG2.2.15 cells were cultured and passaged according to conventional methods. DMEM containing 10% (v/v) bovine serum and the selective antibiotic G418 was used as a medium, the cells were cultured in an incubator at 37° C. under 5% CO2 for 8 days (the medium was exchanged on the 4th day).
(§3) The test compounds were formulated with DMSO into a 40 mM stock solution, which was then prepared into a solution at the defined highest concentration using a DMEM medium containing 10% Hyclone™ Fetal Bovine Serum, followed by diluting the same; the positive drug was lamivudine, which was also prepared into a solution at the defined concentration with the DMEM medium containing 10% Hyclone™ Fetal Bovine Serum.
HepG2.2.15 cells were treated with compounds at different concentrations for 8 days (the medium was exchanged on the 4th day), and the supernatant was aspirated, and the HBV DNA contained in the mature virus particles in the supernatant was quantitated by using a real-time PCR method.
1) The supernatant DNA from a 96-well plate, 200 μl/well, was collected, wherein the contents in the duplicate wells were collected into a same EP tube, and centrifuged at 4000 rcf for 5 min, and the supernatant was collected;
2) 200 μl of the supernatant was added into a 1.5 ml EP tube, added with 20 μl of proteinase K and 200 μl of Buffer AL (Qiagen, DNeasy® Blood & Tissue Kit), vortexed to be mixed thoroughly, and incubated at 56° C. for 10 min;
3) 200 μl of ethanol was added and vortexed to be mixed thoroughly;
4) all the liquid obtained from step 3) was added into a DNeasy Mini spin column (Qiagen, DNeasy® Blood & Tissue Kit) placed in a 2 ml waste liquid collection tube, and centrifuged at 6000 rcf for 1 min, and the supernatant was discarded;
5) the DNeasy Mini spin column was placed in a new 2 ml waste liquid collection tube, added with 500 μl of Buffer AW1 (Qiagen, DNeasy® Blood & Tissue Kit), and centrifuged at 6000 rcf for 1 min, and the supernatant was discarded;
6) the DNeasy Mini spin column was placed in a new 2 ml waste liquid collection tube, added with 500 μl of Buffer AW2, (Qiagen, DNeasy® Blood & Tissue Kit), and centrifuged at 20000 rcf for 3 min, and the supernatant was discarded;
7) the DNeasy Mini spin column was placed in anew 1.5 ml EP tube, 50 μl of Buffer AE (Qiagen, DNeasy® Blood & Tissue Kit) was pipetted and directly applied onto the membrane of the DNeasy Mini spin column, which was then left at room temperature for 5 min, and centrifuged at 6000 rcf for 1 min to elute the DNA from the membrane, the DNeasy Mini spin column was discarded, and the DNA sample was collected and stored at −20° C.
1) Standard curve: 1e^7-1e^4 IU/ml, the sample amount was 1 μl, a blank well was set so as to check whether the reaction system is polluted or not;
2) 1 μl of a DNA sample was added in sequence;
3) Addition of enzyme and reaction buffer: two tubes of the reaction solution were first added into the enzyme, mixed well and centrifuged slightly, placed on ice, added with the sample, followed by addition of 19 μl of the enzyme reaction solution, wherein, during the addition, the DNA sample should be sure of not being touched to cause contamination;
4) the sample was sealed with a sealing film and centrifuged;
Stage 2: 10 cycles • Step 1: 93° C., 45 s • Step 2: 55° C., 1 min Stage 3: 45 cycles • Step 1: 93° C., 30 s • Step 2: 55° C., 45 s
Detection: data were collected after completing the step 2 (55° C., 45 s) of the stage 3.
The experimental data were processed by using the Origin software and IC50 was calculated.

[2] = MTT assay for cytotoxicity; format: cell-based, Human; conditions: human, HepG2.2.15 cells, half (50%) lethal concentration
Protocol: as §1, §2, §3
HepG2.2.15 cells were seeded at 5×10^3 cells/well in a 96-well plate, and cultured for eight days in the presence of the compounds according to the above method, and then 200 μl of the supernatant was taken out, followed by addition of the MTT solution. After 4 hours of culture, a lysate was added. After 12 hours of culture, the OD570 was measured on a microplate reader. By comparing with the absorbance of the control well, the percentage of viable cells was calculated, and CC50, the concentration required for the reduction of cell viability by 50%, was calculated.

Compound | IC50 [1] | CC50 at 8 days [2]
[2H]C([2H])(NC)c1ccc(-c2nn(Cc3ccc(Cl)cc3)c(=O)c3ccccc23)c(F)n1 [Compound I-38] | 800 nM | 81000 nM
CC(=O)OCc1ccc(-c2nn(Cc3ccc(C#N)cc3)c(=O)c3ccccc23)c(F)n1 [IV-23] | 4500 nM | > 100000 nM
O=c1c2ccccc2c(-c2cccnc2)nn1Cc1ccc(Cl)cc1 [Compound I-2] | 3100 nM | 98700 nM
N#Cc1ccc(Cn2nc(-c3cc(Cl)c(N)nc3F)c3ccccc3c2=O)cc1 [IV-30] | < 97.7 nM | 10200 nM
N#Cc1ccc(Cn2nc(-c3ccc(NCCO)nc3F)c3ccccc3c2=O)cc1 [IV-76] | 202 nM | > 100000 nM
CCOCCCNc1ccc(-c2nn(Cc3ccc(C#N)cc3)c(=O)c3ccccc23)c(F)n1 [IV-43] | 288 nM | 89800 nM
N#Cc1ccc(Cn2nc(-c3cc(Cl)c(NCCCC(=O)O)nc3F)c3ccccc3c2=O)cc1 [IV-52] | 84.5 nM | > 100000 nM
COCCNc1ccc(-c2nn(Cc3ccc(C#N)cc3)c(=O)c3ccccc23)c(F)n1 [IV-26] | 430 nM | > 100000 nM
COc1ccc2c(=O)n(Cc3ccc(Cl)cc3)nc(-c3ccc(C)nc3F)c2c1 [Compound V-5] | 3700 nM | > 100000 nM
Cc1ccc(-c2nn(Cc3ccc(Cl)cc3)c(=O)c3ccc(C#N)cc23)c(F)n1 [Compound V-7] | 900 nM | > 100000 nM
CCOCCOCCNc1ccc(-c2nn(Cc3ccc(C#N)cc3)c(=O)c3ccccc23)c(F)n1 [IV-56] | 214 nM | > 100000 nM
COC(=O)CCCNc1nc(F)c(-c2nn(Cc3ccc(C#N)cc3)c(=O)c3ccccc23)cc1Cl [IV-65] | 116 nM | > 100000 nM
N#Cc1ccc(Cn2nc(-c3ccc(N4CCC4)nc3F)c3ccccc3c2=O)cc1 [IV-11] | 400 nM | 98500 nM
N#Cc1ccc(Cn2nc(-c3cccnc3F)c3ccccc3c2=O)cc1 [IV-2] | 1180 nM | > 100000 nM
CC1(C)OCC(CNc2nc(F)c(-c3nn(Cc4ccc(C#N)cc4)c(=O)c4ccccc34)cc2Cl)O1 (stereo not drawn) [IV-79] | 347 nM | > 100000 nM
COCCOc1ccc(-c2nn(Cc3ccc(C#N)cc3)c(=O)c3ccccc23)c(F)n1 [IV-31] | 452 nM | 109000 nM
CCOC(=O)CCNc1nc(F)c(-c2nn(Cc3ccc(C#N)cc3)c(=O)c3ccccc23)cc1Cl [IV-71] | 2780 nM | > 100000 nM
Cc1ncccc1-c1nn(Cc2ccc(Cl)cc2)c(=O)c2ccccc12 [Compound I-7] | 3800 nM | 48900 nM
[2H]C([2H])(c1ccc(Cl)cc1)n1nc(-c2ccc(F)nc2F)c2ccccc2c1=O [Compound I-27] | 300 nM | > 100000 nM
CN(C)Cc1ccc(-c2nn(Cc3ccc(Cl)cc3)c(=O)c3ccccc23)c(F)n1 [Compound I-33] | 1300 nM | > 100000 nM
CCOCCCNc1nc(F)c(-c2nn(Cc3ccc(C#N)cc3)c(=O)c3ccccc23)cc1Cl [IV-44] | < 97.7 nM | 54800 nM
O=c1c2ccccc2c(-c2ccc(NCC3CCOCC3)nc2F)nn1Cc1ccc(Cl)cc1 [Compound I-30] | 400 nM | > 100000 nM
CCNCCNc1nc(F)c(-c2nn(Cc3ccc(C#N)cc3)c(=O)c3ccccc23)cc1Cl [IV-48] | 516 nM | 7380 nM
COCCNc1nc(F)c(-c2nn(Cc3ccc(C#N)cc3)c(=O)c3ccccc23)cc1Cl [IV-27] | 14.2 nM | > 100000 nM

Compound | IC50 [1] | CC50 at 8 days [2]
N#Cc1ccc(Cn2nc(-c3ccc(C4CC4)nc3F)c3ccccc3c2=O)cc1 [IV-19] | 270 nM | > 100000 nM
COc1ncc(-c2nn(Cc3ccc(Cl)cc3)c(=O)c3ccccc23)cn1 [II-3] | 8800 nM | > 100000 nM
CC(O)CNc1nc(F)c(-c2nn(Cc3ccc(C#N)cc3)c(=O)c3ccccc23)cc1Cl (stereo not drawn) [IV-82] | 209 nM | 71900 nM
COCCOCCOCCNc1nc(F)c(-c2nn(Cc3ccc(C#N)cc3)c(=O)c3ccccc23)cc1Cl [IV-50] | 9.65 nM | > 100000 nM
Cc1ccc(-c2nn(Cc3ccc(C#N)cc3)c(=O)c3cc(F)c(F)cc23)c(F)n1 [Compound V-10] | 700 nM | 47900 nM
O=c1c2ccccc2c(-c2c(F)cc(F)nc2F)nn1Cc1ccc(Cl)cc1 [Compound I-23] | 600 nM | > 100000 nM
COCCOCCOCCNc1ccc(-c2nn(Cc3ccc(C#N)cc3)c(=O)c3ccccc23)c(F)n1 [IV-49] | 166 nM | 93600 nM
N#Cc1ccc(Cn2nc(-c3ccc(NCCC(F)(F)F)nc3F)c3ccccc3c2=O)cc1 [IV-83] | 413 nM | > 100000 nM
CC(=O)OCc1ccc(-c2nn(Cc3ccc(Cl)cc3)c(=O)c3ccccc23)c(F)n1 [Compound I-28] | 1000 nM | 73100 nM
CN(C)CCCNc1ccc(-c2nn(Cc3ccc(C#N)cc3)c(=O)c3ccccc23)c(F)n1 [IV-39] | 684 nM | 18400 nM
COCCCNc1nc(F)c(-c2nn(Cc3ccc(C#N)cc3)c(=O)c3ccccc23)cc1Cl [IV-33] | < 97.7 nM | 181000 nM
O=c1c2ccccc2c(-c2cccnc2Cl)nn1Cc1ccc(Cl)cc1 [Compound I-6] | 1700 nM | > 100000 nM
COC(=O)CCNc1ccc(-c2nn(Cc3ccc(C#N)cc3)c(=O)c3ccccc23)c(F)n1 [IV-72] | 1720 nM | > 100000 nM
N#Cc1ccc(Cn2nc(-c3cc(Cl)c(NCCOCC(=O)O)nc3F)c3ccccc3c2=O)cc1 [IV-60] | 766 nM | > 100000 nM
CCOCCOCCNc1nc(F)c(-c2nn(Cc3ccc(C#N)cc3)c(=O)c3ccccc23)cc1Cl [IV-57] | 87.8 nM | ≥ 100000 nM
CC(C)(C)OC(=O)COCCNc1nc(F)c(-c2nn(Cc3ccc(C#N)cc3)c(=O)c3ccccc23)cc1Cl [IV-59] | 780 nM | > 100000 nM
CCOCCNc1ccc(-c2nn(Cc3ccc(C#N)cc3)c(=O)c3ccccc23)c(F)n1 [IV-41] | 325 nM | > 100000 nM
N#Cc1ccc(Cn2nc(-c3ccc(N)nc3C#N)c3ccccc3c2=O)cc1 [IV-7] | 800 nM | > 100000 nM
Cc1ccc(-c2nn(Cc3ccc(Cl)cc3)c(=O)c3cc(F)c(F)cc23)c(F)n1 [Compound V-2] | 300 nM | > 100000 nM
Cc1ccc(-c2nn(Cc3ccc(Cl)cc3)c(=O)c3ccc(F)cc23)c(F)n1 [Compound V-1] | 700 nM | > 100000 nM
CN(C)CCCCNc1ccc(-c2nn(Cc3ccc(C#N)cc3)c(=O)c3ccccc23)c(F)n1 [IV-40] | 660 nM | 18600 nM
[2H]C([2H])(c1ccc(C#N)cc1)n1nc(-c2ccc(F)nc2F)c2ccccc2c1=O [IV-18] | 210 nM | > 100000 nM
CC(=O)Nc1ccc(-c2nn(Cc3ccc(C#N)cc3)c(=O)c3ccccc23)c(F)n1 [IV-10] | 1700 nM | 47900 nM
Cc1ccc(-c2nn(Cc3ccc(Cl)cc3)c(=O)c3cc(C(F)(F)F)c(C(F)(F)F)cc23)c(F)n1 [Compound V-9] | 1300 nM | > 100000 nM
